Source: patent publication EP0602242A1, “BENZISOXAZOLE COMPOUND AND USE THEREOF” (priority 1991, dated 1993)
Where a name gives a salt, the structure may show the parent alone. Read-outs that look alike come from different tables or passages of the source.

Key:
[1] = Acute toxicity after oral administration; conditions: rat, in vivo; oral administration to rats; read-out: acute toxicity values (LD₅₀)
Procedure: The acute toxicity values (LD₅₀) of the compounds of the present invention 6 and 41 after oral administration to rats were not less than 50 mg/kg.

[2] = target: acetylcholinesterase (AChE) derived from human (Homo sapiens, UniProt P22303); experiment: biochemical
[3] = target: butyrylcholinesterase (BChE) derived from human (Homo sapiens, UniProt P06276); experiment: biochemical
[4] = target: T1, acetylcholinesterase (AChE) (Rattus norvegicus, UniProt P37136); experiment: biochemical; parameters: species or system male Wistar rat
T1 construct: An enzyme solution was a homogenized solution of forebrain from male Wistar rat; from tissue; host or cells: forebrain of male Wistar rat (homogenate)
T1 sequence (P37136 32-614): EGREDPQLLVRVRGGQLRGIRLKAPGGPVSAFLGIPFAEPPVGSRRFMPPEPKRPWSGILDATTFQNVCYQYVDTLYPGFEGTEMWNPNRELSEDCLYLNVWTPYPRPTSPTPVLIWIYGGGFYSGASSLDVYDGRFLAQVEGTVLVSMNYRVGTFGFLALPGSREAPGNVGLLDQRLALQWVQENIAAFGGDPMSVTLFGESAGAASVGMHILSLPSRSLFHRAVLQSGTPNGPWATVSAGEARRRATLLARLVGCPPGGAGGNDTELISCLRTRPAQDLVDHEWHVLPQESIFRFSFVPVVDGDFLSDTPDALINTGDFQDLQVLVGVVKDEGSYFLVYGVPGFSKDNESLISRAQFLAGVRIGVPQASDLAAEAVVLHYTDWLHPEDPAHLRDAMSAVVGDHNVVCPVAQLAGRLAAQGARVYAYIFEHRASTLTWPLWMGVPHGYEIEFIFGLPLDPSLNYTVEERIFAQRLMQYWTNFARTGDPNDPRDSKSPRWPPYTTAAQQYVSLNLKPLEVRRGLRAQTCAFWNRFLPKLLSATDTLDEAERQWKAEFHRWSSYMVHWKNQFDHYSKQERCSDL
Procedure: An enzyme solution was a homogenized solution of forebrain from male Wistar rat in 0.1M phosphate buffer (pH 8.0). Acetylthiocholine was used as a substrate for acetylcholinesterase (AChE) and the density of thionitrobenzoate (yellow) produced by the following reaction was measured with a spectrophotometer (OD₄₁₂). [drawing 27] Thiocholine + dithiobisnitrobenzoate → thionitrobenzoate Test compounds were dissolved in dimethylsulfoxide and diluted with 0.1M phosphate buffer (pH 8.0).

sigma receptor = experiment: Sigma receptor binding test (3H-DTG, rat cerebral cortex membrane fractions); parameters: species or system Male Wistar rats; conditions: rat cerebral cortex membranes, 3H-DTG 2.5 nM, 25°C 60 minutes, Ki = IC50/[1 + (L/Kd)], Kd 26.3 nM; read-out: Sigma receptor binding assay ³H-DTG (Ki)
Procedure: Male Wistar rats weighing 250-300 g were decapitated and the brains were removed. Cerebral cortex was dissected on ice, and the brain tissues were homogenized in 20 volumes of Tris-HCl buffer (pH 8.0, 25°C) containing 320 mM sucrose. The homogenate was centrifuged at 1000 × g for 10 minutes. The obtained supernatant was centrifuged at 31,000 × g for 15 minutes and the pellets obtained were suspended in the same Tris-HCl buffer, followed by incubation at 37°C for 10 minutes. Centrifugation was repeated twice and the final pellets were suspended in 50 mM Tris-HCl buffer (pH 8.0, 25°C) and used as membrane fractions.
A binding inhibitory test was conducted by adding [³H]-1,3-di-o-tolylguanidine (³H-DTG, 39.4 Ci/mmol, New England Nuclear, final concentration 2.5 nM) and respective test compounds (5 different concentrations) to the membrane fractions (0.9 ml, 0.5-0.8 mg) and then the above-mentioned buffer to the final volume of 1 ml. The mixtures were incubated at 25°C for 60 minutes. The reaction mixture was suction-filtered through Whatman GF/B filters which had been treated previously with 0.1% polyethyleneimine and washed three times with 3 ml of 10 mM Tris-HCl buffer (pH 7.7, 25°C). Then, the β rays of the bound ³H-DTG on the filter were measured by a liquid scintillation counter.
IC₅₀ values were determined graphically and Ki values were calculated by the numerical equation Ki = IC₅₀/[1 + (L/Kd)] [formula] wherein L is a concentration of radioligand and Kd (26.3 nM) is a dissociation constant between tritiated ligand and the receptor.

[5] = AChE derived from human, substrate acetylthiocholine, read-out: IC₅₀ AChE
[6] = IC50 for human BChE divided by IC50 for human AChE
[7] = homogenized forebrain of male Wistar rat, substrate acetylthiocholine, 0.1M phosphate buffer pH 8.0, read-out: Acetylcholinesterase inhibition IC₅₀
[8] = BChE derived from human, substrate butyrylthiocholine, read-out: IC₅₀ BChE

Sequence of butyrylcholinesterase (BChE) derived from human (P06276 29-602): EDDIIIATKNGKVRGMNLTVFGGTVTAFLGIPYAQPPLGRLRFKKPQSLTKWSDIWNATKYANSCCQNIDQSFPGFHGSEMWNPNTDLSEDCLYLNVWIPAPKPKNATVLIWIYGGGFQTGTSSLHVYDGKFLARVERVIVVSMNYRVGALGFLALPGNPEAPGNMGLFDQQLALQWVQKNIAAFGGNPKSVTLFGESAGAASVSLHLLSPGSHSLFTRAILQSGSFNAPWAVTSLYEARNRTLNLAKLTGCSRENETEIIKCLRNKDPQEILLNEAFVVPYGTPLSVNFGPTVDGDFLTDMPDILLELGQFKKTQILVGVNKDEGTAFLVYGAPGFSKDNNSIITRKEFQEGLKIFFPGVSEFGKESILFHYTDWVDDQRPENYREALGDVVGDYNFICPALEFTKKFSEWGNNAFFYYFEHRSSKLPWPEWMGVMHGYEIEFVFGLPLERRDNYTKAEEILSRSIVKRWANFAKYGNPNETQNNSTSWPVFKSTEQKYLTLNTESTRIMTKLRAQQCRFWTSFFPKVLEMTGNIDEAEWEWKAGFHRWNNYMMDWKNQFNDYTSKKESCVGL
Sequence of acetylcholinesterase (AChE) derived from human (P22303 32-614): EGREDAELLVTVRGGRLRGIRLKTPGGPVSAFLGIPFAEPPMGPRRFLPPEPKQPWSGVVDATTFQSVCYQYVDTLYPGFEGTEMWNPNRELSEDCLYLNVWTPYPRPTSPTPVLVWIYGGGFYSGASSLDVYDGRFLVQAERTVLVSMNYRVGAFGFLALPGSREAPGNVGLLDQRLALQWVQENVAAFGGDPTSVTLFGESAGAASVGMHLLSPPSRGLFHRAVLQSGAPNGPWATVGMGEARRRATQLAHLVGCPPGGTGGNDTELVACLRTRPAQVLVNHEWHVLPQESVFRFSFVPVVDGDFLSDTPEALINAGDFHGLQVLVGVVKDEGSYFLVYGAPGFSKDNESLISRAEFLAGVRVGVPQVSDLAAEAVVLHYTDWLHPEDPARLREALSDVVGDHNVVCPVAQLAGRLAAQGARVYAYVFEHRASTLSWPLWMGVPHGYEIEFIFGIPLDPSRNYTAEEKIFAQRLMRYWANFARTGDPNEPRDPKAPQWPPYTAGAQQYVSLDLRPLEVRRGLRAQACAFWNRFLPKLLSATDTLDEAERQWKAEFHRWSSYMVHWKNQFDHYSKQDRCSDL

SMILES | IC50 [2, 5] [nM] | Selectivity IC₅₀ (BChE)/IC₅₀ (AChE) [2, 6] | Ki (sigma receptor) [nM] | other results
CC(=O)Nc1ccc2c(CCC3CCN(Cc4ccccc4)CC3)noc2c1 [Example 6, 6-acetylamino-3-(2-(1-benzyl-4-piperidyl)ethyl)-1,2-benzisoxazole] | 2.1 |  |  | LD50 [1]: ≥ 50 mg/kg; Selectivity IC₅₀ (BChE)/IC₅₀ (AChE) [2]: 4,500; IC50 [3]: 9500 nM
CN(C)C(=S)Oc1ccc2c(CCC3CCN(Cc4ccccc4)CC3)noc2c1 [Example 11] |  | >20,000 |  | IC50 [2]: 0.5 nM; IC50 [3]: > 10000 nM
COc1ccc2c(CCC3CCN(Cc4ccccc4)CC3)noc2c1OC [Example 19, 3-(2-(1-benzyl-4-piperidyl)ethyl)-6,7-dimethoxy-1,2-benzisoxazole] | 1.8 | 4,200 |  | IC50 [4, 7]: 0.38 nM; IC50 [3, 8]: 7500 nM
CNC(=O)Oc1cccc(CN2CCC(CCc3noc4c(OC)c(OC)ccc34)CC2)c1 [Example 23, 3-(2-(1-(3-(N-methylcarbamoyloxy)benzyl)-4-piperidyl)ethyl)-6,7-dimethoxy-1,2-benzisoxazole] |  |  |  | IC50 [4]: 0.34 nM
CC(=O)N(C)c1ccc2c(CCC3CCN(Cc4ccccc4)CC3)noc2c1 [Example 41, 3-(2-(1-Benzyl-4-piperidyl)ethyl)-6-(N-methylacetamino)-1,2-benzisoxazole] | 4.6 | 3,700 |  | LD50 [1]: ≥ 50 mg/kg; IC50 [3, 8]: 17000 nM
Cc1ccc2onc(OCCC3CCN(CC4CCCCC4)CC3)c2c1 [Example 160, 3-(2-(1-Cyclohexylmethyl-4-piperidyl)ethyloxy)-5-methyl-1,2-benzisoxazole fumarate] |  |  | 0.23 | 
Cc1ccc2c(OCCC3CCN(CC4CCCCC4)CC3)noc2c1 [Example 164, 3-(2-(1-Cyclohexylmethyl-4-piperidyl)ethyloxy)-6-methyl-1,2-benzisoxazole fumarate] |  |  | 0.37 | 
O=C(Nc1ccc2c(=O)n(CCCC3CCN(Cc4ccccc4)CC3)oc2c1)c1ccccc1 [Example 198, 6-benzoylamino-2-(3-(1-benzyl-4-piperidyl)propyl)-1,2-benzisoxazol-3(2H)-one] | 0.94 | 3,800 |  | IC50 [3, 8]: 3600 nM
Cc1ccc2c(=O)n(CCC3CCN(CC4CCCCC4)CC3)oc2c1 [Example 227, 2-(2-(1-Cyclohexylmethyl-4-piperidyl)ethyl)-6-methyl-1,2-benzisoxazol-3(2H)-one fumarate] |  |  | 0.55 | 
Cc1ccc2on(CCC3CCN(CC4CCCCC4)CC3)c(=O)c2c1 [Example 231, 2-(2-(1-Cyclohexylmethyl-4-piperidyl)ethyl)-5-methyl-1,2-benzisoxazol-3(2H)-one fumarate] |  |  | 0.42 | 
O=C(Nc1ccc2c(=O)n(CCC3CCN(Cc4ccccc4)CC3)oc2c1)c1ccccc1 [Example 252, 6-Benzoylamino-2-(2-(1-benzyl-4-piperidyl)ethyl)-1,2-benzisoxazol-3(2H)-one] |  |  |  | IC50 [4, 7]: 0.73 nM
